Measurements as given in patent publication US20080287398A1, “COLD MENTHOL RECEPTOR-1 ANTAGONISTS” (priority 2007, published 2008).
Several values for one entry are separate records, joined by “and”; a condition that tells them apart may be missing. Equal entries are not always repeated. Where two headings read alike, the source gives them in different places.

Target: T1, canine TRPM8 (Canis lupus familiaris, UniProt Q1A7N1)
T1 construct: expressed in transfected cells
Assay: In vitro canine TRPM8 functional assay (Ca2+-sensitive dye, FLIPR/FDSS, icilin activation)
Format: cell-based
Conditions: HEK293 cells expressing canine TRPM8, icilin activation; for % I (1 μM): 1 μM compound; for % I (0.5 μM): 0.5 μM compound; for IC50: eight-point dose-response; for % I (5 μM): 5 μM compound
Description: The functional activity of compounds of Formula (I) was determined by measuring changes in intracellular calcium concentration using a Ca^2+-sensitive fluorescent dye. The changes in fluorescent signal were monitored by a fluorescence plate reader, either a FLIPR™ (Molecular Devices) or FDSS (Hamamatsu).
HEK293 cells stably expressing canine TRPM8 were routinely grown as monolayers in Dulbecco's minimum essential medium supplemented with 10% FBS, 1 mM L-glutamine, 100 units/mL penicillin, 100 ug/mL streptomycin and 400 μg/mL G418. Cells were maintained in 5% CO2 at 37° C. At 24 hrs prior to assay, cells were seeded in clear-base poly-D-lysine coated 384-well plates (BD Biosciences, NJ, USA) at a density of 5,000 cells per well in culture medium and grown overnight in 5% CO2 at 37° C. On assay day, growth media was removed and cells were loaded with Calcium 3 Dye (Molecular Devices) for 35 min at 37° C., under 5% CO2 and then for 25 min at room temperature and atmosphere. Subsequently, cells were tested for agonist-induced increases in intracellular Ca^2+ levels using FLIPR™ or FDSS. Cells were challenged with a compound of Formula (I) (at varying concentrations) and intracellular Ca^2+ was measured for 5 min prior to the addition of icilin to all wells to achieve a final concentration which produces approximately an 80% maximal response.
Basal FI was subtracted prior to normalizing data to percent of maximal response. Curves were generated using the average of quadruplicate wells for each data point, were analyzed using nonlinear regression of either sigmoidal dose response or sigmoidal dose response (variable slope). Finally, the EC50 and IC50 values were calculated with the best-fit dose curve determined by GraphPad Prism.

[1] = HEK293, read-out: % I (0.5 μM), 0.5 μM compound
[2] = HEK293, read-out: % I (1 μM), 1 μM compound
[3] = HEK293, 1 μM compound, read-out: % I (1 μM)

T1 sequence (Q1A7N1 1-1104): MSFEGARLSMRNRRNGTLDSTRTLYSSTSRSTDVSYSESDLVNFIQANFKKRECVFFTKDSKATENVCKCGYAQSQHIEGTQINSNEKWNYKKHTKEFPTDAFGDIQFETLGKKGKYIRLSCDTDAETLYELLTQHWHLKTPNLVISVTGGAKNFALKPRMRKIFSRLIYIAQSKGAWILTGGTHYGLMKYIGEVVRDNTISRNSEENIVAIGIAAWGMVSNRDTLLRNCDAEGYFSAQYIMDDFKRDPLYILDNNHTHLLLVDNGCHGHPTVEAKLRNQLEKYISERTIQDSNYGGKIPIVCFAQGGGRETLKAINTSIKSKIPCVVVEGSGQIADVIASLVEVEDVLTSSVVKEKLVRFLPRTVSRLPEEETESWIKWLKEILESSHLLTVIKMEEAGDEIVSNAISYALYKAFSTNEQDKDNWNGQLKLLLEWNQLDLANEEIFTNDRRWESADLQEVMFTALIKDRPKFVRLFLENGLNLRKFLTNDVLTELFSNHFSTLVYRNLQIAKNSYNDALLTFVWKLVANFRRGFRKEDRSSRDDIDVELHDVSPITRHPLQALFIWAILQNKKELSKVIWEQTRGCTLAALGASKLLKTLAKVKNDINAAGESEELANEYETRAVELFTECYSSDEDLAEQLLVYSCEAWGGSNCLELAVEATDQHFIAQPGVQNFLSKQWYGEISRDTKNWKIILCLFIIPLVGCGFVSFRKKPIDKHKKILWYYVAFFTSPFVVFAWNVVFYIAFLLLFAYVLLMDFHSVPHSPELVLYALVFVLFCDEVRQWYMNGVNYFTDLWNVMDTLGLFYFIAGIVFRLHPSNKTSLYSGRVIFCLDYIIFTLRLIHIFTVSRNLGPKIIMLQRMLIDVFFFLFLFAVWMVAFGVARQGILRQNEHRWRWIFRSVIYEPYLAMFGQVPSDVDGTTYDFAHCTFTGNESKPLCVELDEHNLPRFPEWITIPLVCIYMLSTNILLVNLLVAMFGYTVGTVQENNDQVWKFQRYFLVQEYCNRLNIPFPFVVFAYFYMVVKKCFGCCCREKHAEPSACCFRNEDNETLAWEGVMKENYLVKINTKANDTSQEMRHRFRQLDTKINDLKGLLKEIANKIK

Compound | % I (1 μM) [%] | % I (0.5 μM) | IC50 (read-out: IC50) | also measured
CCOP(=O)(OCC)C(Cc1ccc(F)c(F)c1)c1sc2c(C(F)(F)F)cccc2c1C (centres unmarked) [Cpd 116] | 64 | – | – | –
CCOP(=O)(OCC)C(Cc1cccc(Br)c1)c1sc2ccccc2c1Br (racemic) [Cpd 295] | – | 102% and 103% | 0.031 µM and 0.016 µM | –
CCOP(=O)(OCC)C(Cc1ccc(F)c(F)c1)c1sc2ccccc2c1-c1cccc(F)c1 (centres unmarked) [Cpd 217, {2-(3,4-Difluoro-phenyl)-1-[3-(3-fluoro-phenyl)-benzo[b]thiophen-2-yl)-ethyl]-phosphonic acid diethyl ester] | – | – | – | inhibition at 0.5 µM [1]: 100%; IC50 (IC50 (μM)): 0.142 µM
CCOP(=O)(OCC)C(Cc1ccc(F)cc1)c1sc2ccccc2c1Cl (racemic) [Cpd 284] | – | 103% and 102% | 0.079 µM and 0.065 µM | –
CCOP(=O)(OCC)C(Cc1ccc(F)c(F)c1)c1sc2cc(F)ccc2c1C (centres unmarked) [Cpd 16, [2-(3,4-Difluoro-phenyl)-1-(6-fluoro-3-methyl-benzo[b]-thiophene-2-yl)-ethyl]-phosphonic acid diethyl ester] | – | – | – | inhibition at 1 µM [2]: 100%; IC50 (IC50 (μM)): 0.057 µM and 0.064 µM
CCOP(=O)(OCCN(C)C)C(Cc1ccc(F)c(F)c1)c1sc2ccccc2c1C (centres unmarked) [Cpd 103, [2-(3,4-Difluoro-phenyl)-1-(3-methyl-benzo[b]thiophen-2-yl)-ethyl]-phosphonic acid 2-dimethylamino-ethyl ester ethyl ester] | – | – | – | inhibition at 1 µM [2]: 60%; IC50 (IC50 (μM)): 0.93 µM
CC(C)OP(=O)(OC(C)C)C(Cc1ccc(F)c(F)c1)c1sc2ncccc2c1Br (racemic) [Cpd 207] | – | 99% | 0.051 µM | –
CC(C)OP(=O)(OC(C)C)C(Cc1cccc(Cl)c1)c1sc2ccccc2c1Cl (centres unmarked) [Cpd 180] | – | 103% | 0.075 µM | –
CCOP(=O)(OCC)C(Cc1cc(C(F)(F)F)ccc1F)c1sc2ccccc2c1Br (racemic) [Cpd 146] | – | 103% | 0.1 µM | –
CCOP(=O)(OCC)C(Cc1cccc(N)c1)c1sc2ccccc2c1Br (centres unmarked) [Cpd 318, [2-(3-Amino-phenyl)-1-(3-bromo-benzo[b]thiophen-2-yl)-ethyl]-phosphonic acid diethyl ester] | – | – | – | inhibition at 0.5 µM [1]: 100%; IC50 (IC50 (μM)): 0.211 µM
CCOP(=O)(OCC)C(Cc1cccc(OC(F)(F)F)c1)c1sc2ccccc2c1Br (racemic) [Cpd 145] | – | 103% and 102% | 0.119 µM and 0.116 µM | –
CCOP(=O)(OCC)C(Cc1c(Cl)cccc1Cl)c1cc2ccccc2s1 (centres unmarked) [Cpd 95] | 89 | – | 0.6 µM | % I (5 μM): 100%
CCOP(=O)(OCC)C(Cc1cc(C(F)(F)F)ccc1Cl)c1sc2ccccc2c1C (centres unmarked) [Cpd 99] | 100 | – | 0.72 µM | –
[2-(3,4-Difluoro-phenyl)-1-(3-methyl-benzo[b]thiophene-2-yl)-ethyl]-[3-(4-methoxy-phenyl)-propyl]-phosphonic acid ethyl ester [Cpd 135] | 90 | – | 0.41 µM | –
CCOP(=O)(OCC)C(Cc1cccc([N+](=O)[O-])c1)c1sc2ccccc2c1Br (centres unmarked) [Cpd 315] | – | – | – | inhibition at 0.5 µM [1]: 103%; IC50 (IC50 (μM)): 0.041 µM
CC(C)OP(=O)(OC(C)C)C(Cc1ccc(F)c(Cl)c1)c1sc2ccccc2c1Cl (centres unmarked) [Cpd 253] | – | 103% | 0.034 µM | –
CCOP(=O)(OCC)C(C)(Cc1ccc(F)c(F)c1)c1sc2ccccc2c1C (centres unmarked) [Cpd 79, [2-(3,4-Difluoro-phenyl)-1-methyl-1-(3-methyl-benzo[b]-thiophen-2-yl)-ethyl]-phosphonic acid diethyl ester] | – | – | – | inhibition at 1 µM [2]: 88%; IC50 (IC50 (μM)): 0.43 µM
COc1ccc(CC(c2sc3ccccc3c2Br)P(=O)(OC(C)C)OC(C)C)cc1F (racemic) [Cpd 159] | – | 103% | 0.036 µM | –
CCOP(=O)(Cc1cc2ccccc2s1)OCc1ccccc1 (centres unmarked) [Cpd 111] | 14 | – | – | –
CCOP(=O)(OCC)C(Cc1ccc(F)c(F)c1)c1sc2ccccc2c1-c1ccc(F)nc1 (centres unmarked) [Cpd 130, {2-(3,4-Difluoro-phenyl)-1-[3-(6-fluoro-pyridin-3-yl)-benzo[b]thiophen-2-yl]-ethyl}-phosphonic acid diethyl ester] | – | – | – | inhibition at 1 µM [2]: 100%; IC50 (IC50 (μM)): 0.11 µM
CC(C)OP(=O)(OC(C)C)C(Cc1cccc(C(F)(F)F)c1Cl)c1sc2ccccc2c1Br (centres unmarked) [Cpd 268] | – | 104% | 0.034 µM | –
CC(C)OP(=O)(OC(C)C)C(Cc1cccc(F)c1F)c1cc2ccccc2s1 (centres unmarked) [Cpd 122] | 102 | – | 0.35 µM | –

Compound | % I (1 μM) [%] | % I (0.5 μM) | IC50 (read-out: IC50) | also measured
CC(C)OP(=O)(OC(C)C)C(Cc1cc(Cl)ccc1F)c1sc2ccccc2c1Cl (racemic) [Cpd 303] | – | 102% | 0.049 µM | –
CC(C)OP(=O)(OC(C)C)C(Cc1ccc(F)c(F)c1)c1sc2ccccc2c1C(C)C (centres unmarked) [Cpd 19] | 100 | – | 0.068 µM | –
CCOP(=O)(OCC)C(Cc1ccc(Cl)c(C(F)(F)F)c1)c1sc2ccccc2c1Cl (racemic) [Cpd 287] | – | 103% | 0.124 µM | –
CCOP(=O)(OCC)C(Cc1ccc(F)c(F)c1)c1sc2cccc(F)c2c1C (centres unmarked) [Cpd 3, [2-(3,4-Difluoro-phenyl)-1-(4-fluoro-3-methyl-benzo[b]-thiophene-2-yl)-ethyl]-phosphonic acid diethyl ester] | – | – | – | inhibition at 1 µM [2]: 100%; IC50 (IC50 (μM)): 0.012 µM and 0.051 µM
CCOP(=O)(Cc1cc2ccccc2s1)OCc1ccccc1Cl (racemic) [Cpd 105] | 48 | – | 1.01 µM | % I (5 μM): 100%
CCOP(=O)(OCC)C(Cc1ccc(OC(F)F)cc1)c1sc2ccccc2c1Br (centres unmarked) [Cpd 311] | – | 102% | 0.053 µM | –
CC(C)OP(=O)(OC(C)C)/C(=C/c1ccc(F)c(F)c1)c1sc2ccccc2c1Br [Cpd 334, (E)-[1-(3-Bromo-benzo[b]thiophen-2-yl)-2-(3,4-difluoro-phenyl)-vinyl]-phosphonic acid diisopropyl ester] | – | – | 0.11 µM | inhibition at 0.5 µM (HEK293, 0.5 μM compound, read-out: % I (0.5 μM)): 97%
CC(C)OP(=O)(OC(C)C)C(Cc1ccc(Cl)c(F)c1)c1sc2ccccc2c1Cl (racemic) [Cpd 302] | – | 103% | 0.079 µM | –
CCOP(=O)(OCC)C(Cc1cc(C(F)(F)F)cc(C(F)(F)F)c1)c1sc2ccccc2c1Cl (racemic) [Cpd 282] | – | 100% | 0.235 µM | –
CC(C)OP(=O)(OC(C)C)C(Cc1ccc(F)c(F)c1)c1sc2ccccc2c1C(F)(F)F (centres unmarked) [Cpd 43, [2-(3,4-Difluoro-phenyl)-1-(3-trifluoromethyl-benzo[b]-thiophene-2-yl)-ethyl]-phosphonic acid diisopropyl ester] | – | – | 0.16 µM | inhibition at 1 µM [3]: 100%
CCOP(=O)(OCC)C(Cc1cccc(OC(F)(F)F)c1)c1sc2ccccc2c1C (centres unmarked) [Cpd 57] | 100 | – | 0.26 µM | –
CC(C)OP(=O)(OC(C)C)C(Cc1ccc(C(F)(F)F)c(F)c1)c1sc2ccccc2c1Cl (centres unmarked) [Cpd 174] | – | 104% | 0.089 µM | –
CCOP(=O)(OCC)C(Cc1cccc(Cl)c1F)c1sc2ccccc2c1C (centres unmarked) [Cpd 23] | 100 | – | 0.096 µM | –
CCOP(=O)(OCC)C(Cc1ccc(F)c(F)c1)c1sc2cc(OC)ccc2c1C (centres unmarked) [Cpd 82, [2-(3,4-Difluoro-phenyl)-1-[6-methoxy-3-methyl-benzo[b]thiophene-2-yl)-ethyl]-phosphonic acid diethyl ester] | – | – | – | inhibition at 1 µM [2]: 87%; IC50 (IC50 (μM)): 0.44 µM
CCOP(=O)(OCC)C(Cc1ccc(F)c(F)c1)c1cc2ccccc2o1 (centres unmarked) [Cpd 265] | 95 | – | 0.409 µM | –
Cc1c(C(OCc2ccc(F)c(F)c2)P(=O)(CC(C)C)CC(C)C)sc2ccccc12 (centres unmarked) [Cpd 13, 2-[(3,4-Difluoro-benzyloxy)-(diisobutyl-phosphinoyl)-methyl]-3-methyl-benzo[b]thiophene] | – | – | 0.046 µM | inhibition at 1 µM [3]: 100%
CCOP(=O)(OCC)C(Cc1ccc(C(F)(F)F)cc1F)c1sc2ccccc2c1Br (racemic) [Cpd 150] | – | 103% | 0.09 µM | –
CC(C)OP(=O)(OC(C)C)C(Cc1ccc(Cl)cc1)c1sc2ccccc2c1Cl (centres unmarked) [Cpd 181] | – | 103% | 0.112 µM | –
COP(=O)(OC)C(Cc1ccc(F)c(F)c1)c1sc2ccccc2c1Br (centres unmarked) [Cpd 201] | 100 | – | 0.133 µM | –
CCOP(=O)(OCC)C(Cc1ccc(Cl)c(Cl)c1)c1cc2ccccc2s1 (centres unmarked) [Cpd 78, [1-Benzo[b]thiophen-2-yl-2-(3,4-dichloro-phenyl)-ethyl]-phosphonic acid diethyl ester] | – | – | – | inhibition at 1 µM [2]: 95%; IC50 (IC50 (μM)): 0.43 µM
CC(C)OP(=O)(OC(C)C)C(Cc1cc(F)cc(F)c1)c1sc2ccccc2c1Br (centres unmarked) [Cpd 193] | 103 | – | 0.059 µM | –
